# Earlier results, collected in patent publication US20190316065A1, “NATURALLY-DERIVED ANTIMICROBIAL CLEANING SOLUTIONS” (ProNatural Brands LLC, priority 2018, published 2019).
# Details: standard pKa
smiles,measurement,value
O=C(O)CC(O)(CC(=O)O)C(=O)O [citric acid],pKa1,3.1
same,pKa2,4.8
same,pKa3,≈ 6.4
